Inconclusive results are not listed. Active and inactive are the calls of the source. How the calls were made is not given here.

For this data set, the system named is S. typhimurium/E. coli reverse mutation, colony counts. In words: Bacterial reverse mutation test (aka Ames test) summary data. An outline of the steps:
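S. typhimurium his⁻ strains (TA97–TA1538) and E. coli WP2 uvrA pKM101 trp⁻, dosed over a range with or without rat, hamster or mouse liver S9. Preincubated 20 min at 37° C (or plate incorporation), plated in agar, incubated usually two days. Revertant colonies counted against negative controls.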
(In general: The Ames test detects mutagens through reverse mutation in bacteria.)
Take `CN1CSC(=S)N(C)C1`: the outcome is “active; weakly positive”.
Take `CNC(=O)NC`: the outcome was “inactive; negative”.
As to `Cc1ccc([N+](=O)[O-])c(N)c1`, the outcome is “inactive; negative”.
In the case of `C1CN1c1nc(N2CC2)nc(N2CC2)n1`, the outcome is “active; positive”.
`BrC(Br)C(Br)(Br)Br`: the outcome is “inactive; negative”.
`O=C1CCO1`: the outcome was “active; positive”.
Under `C=CCO` stands “inactive; negative”; under `Cc1cc(-c2cc(C)c(N)c(C)c2)cc(C)c1N`, “inactive; negative”.
Under `O=C1OC2(c3cc(Br)c(O)c(Br)c3Oc3c2cc(Br)c(O)c3Br)c2c(Cl)c(Cl)c(Cl)c(Cl)c21` stands “active; positive”; under `O=[N+]([O-])c1cc([N+](=O)[O-])c2ccc(S(=O)(=O)O)cc2c1O`, “active; positive”; under `Cc1c(O)cccc1C(=O)N[C@@H](CSc1ccccc1)[C@H](O)CN1C[C@H]2CCCC[C@H]2C[C@H]1C(=O)NC(C)(C)C`, “inactive; negative”.
On to `[O]=[Mo](=[O])=[O]`, for which the outcome is “inactive; negative”.
As for `O=[N+]([O-])C(Br)(Br)Br`, the outcome is “active; weakly positive”.
Then `CCCCCCCCCCCCCCCCN`, with “inactive; negative”; and `CC(C)C(C)C`, with “inactive; negative”; and `Nc1cc(S(=O)(=O)[O-])cc2cc(S(=O)(=O)[O-])c(N=Nc3ccc(-c4ccc(N=Nc5c(S(=O)(=O)[O-])cc6cc(S(=O)(=O)[O-])cc(N)c6c5[O-])c([O-])c4)cc3[O-])c([O-])c12.[Cu+2].[Cu+2].[Na+].[Na+].[Na+].[Na+]`, with “inactive; negative”.
In the case of `OCC1CCC(CO)CC1` (centres undefined), the outcome is “inactive; negative”.
Regarding `CC/C=C\C/C=C\C/C=C\CCCCCCCC(=O)OCC`, the outcome was “active; weakly positive”.
With `NC(=O)Nc1nc2ccccc2[nH]1`, the outcome is “active; positive”.
Turning to `Cc1cn([C@H]2C=C[C@@H](CO)O2)c(=O)[nH]c1=O`, the outcome is “active; weakly positive”.
Then `c1ccc(N=Nc2ccccc2)cc1`, with “active; positive”.
Then `O=S1(=O)CC=CC1`, with “inactive; negative”; and `CN(C)C(=S)N(C)C`, with “inactive; negative”.
Then `ClNc1nc(NCl)nc(NCl)n1`, with “inactive; negative”; and `CC(C)(C)CC(C)(C)c1ccc(OCCOCC[N+](C)(C)Cc2ccccc2)cc1`, with “inactive; negative”.
`COCCOCCOCCOC`: the outcome is “active; positive”.
Then `CC(=O)c1ccc(S(=O)(=O)NC(=O)NC2CCCCC2)cc1`, with “inactive; negative”; and `c1cc(OCC2CO2)cc(OCC2CO2)c1` (centres undefined), with “active; positive”.
Under `CC=C(Cl)Cl` stands “inactive; negative”; under `O=C(O)c1ccccc1Cl`, “inactive; negative”.
For `IC(I)I`, the outcome is “active; positive”.
Take `O=C1O[C@H](CO)[C@@H](O)[C@H](O)[C@H]1O`: the outcome is “inactive; negative”.
Under `[Cl][In]([Cl])[Cl]` stands “inactive; negative”.
Under `C=CCOC(=O)c1ccccc1C(=O)OCC=C` stands “inactive; negative”; under `Nc1ccc(NCCO)c([N+](=O)[O-])c1`, “active; positive”; under `CCc1nc(N)nc(N)c1-c1ccc(Cl)cc1`, “inactive; negative”.
Then `CCCCOC(C)=O`, with “inactive; negative”; and `CCCCCCCCCCCCCC(=O)[O-].CCCCCCCCCCCCCC(=O)[O-].[Zn+2]`, with “inactive; negative”.
With `CC(O)CNCC(C)O` (centres undefined), the outcome is “inactive; negative”.
On to `C(CCOCC1CO1)COCC1CO1` (centres undefined), for which the outcome was “active; positive”.
As to `Oc1cccc2cccnc12`, the outcome is “active; positive”.
In the case of `O=c1oc2c(O)c(O)cc3c(=O)oc4c(O)c(O)cc1c4c23`, the outcome is “inactive; negative”.
On to `O=C1CCc2ccccc2O1`, for which the outcome is “inactive; negative”.
Then `C=CBr`, with “active; positive”; and `Oc1c(Cl)c(Cl)cc(Cl)c1Cl`, with “inactive; negative”; and `CCCCCCCCS(=O)C(C)Cc1ccc2c(c1)OCO2` (centres undefined), with “inactive; negative”.
Then `Nc1cc([N+](=O)[O-])cc(Cl)c1O`, with “active; positive”; and `NC(=O)c1ncn([C@@H]2O[C@H](CO)[C@@H](O)[C@H]2O)n1`, with “inactive; negative”; and `Oc1c(Br)c(Br)c(Br)c(Br)c1Br`, with “inactive; negative”.
In the case of `c1ccc(NNc2ccccc2)cc1`, the outcome is “active; positive”.
Under `N#CCCC#N` stands “inactive; negative”; under `NC(=O)c1ccccc1[N+](=O)[O-]`, “active; positive”.
On to `C1=CC2C3C=CC(C3)C2C1` (centres undefined), for which the outcome is “inactive; negative”.
As for `[CH3][Sn]([CH3])([F])[F]`, the outcome was “inactive; negative”.
Consider `Nc1ncnc2c1ncn2[C@H]1CC[C@@H](CO)O1`, for which the outcome is “active; positive”.
As for `CC(=O)Nc1ccc(N=Nc2cc(C)ccc2O)cc1`, the outcome was “active; positive”.
Take `CCNC(=O)Nc1ncc([N+](=O)[O-])s1`: the outcome is “active; positive”.
Then `NC(=O)c1ccccc1C(N)=O`, with “inactive; negative”; and `CCC(C)(C)OC`, with “inactive; negative”; and `CCOCCOCCO`, with “inactive; negative”.
With `COC[CH2][Hg+]`, the outcome was “inactive; negative”.
Under `CC(=O)C=Cc1ccc2c(c1)OCO2` stands “inactive; negative”.
In the case of `COc1cc(C=O)ccc1O`, the outcome is “inactive; negative”.
Under `CCOc1cccc(N)c1` stands “active; weakly positive”; under `Nc1cc(Cl)c(N)c(Cl)c1`, “active; positive”.
Consider `NC(=O)c1ccccc1O`, for which the outcome was “inactive; negative”.
Under `O=C(OCC(COC(=O)c1ccccc1)(COC(=O)c1ccccc1)COC(=O)c1ccccc1)c1ccccc1` stands “inactive; negative”.
In the case of `NC(=O)NC(N)=O`, the outcome is “active; positive”.
On to `Nc1c(Cl)c(Cl)nc(C(=O)O)c1Cl`, for which the outcome was “inactive; negative”.
Under `Nc1ccccn1` stands “inactive; negative”; under `CS(C)=O`, “inactive; negative”; under `C=C(Cl)CCl`, “active; positive”.
Consider `c1ccc2cc3c(cc2c1)-c1cccc2cccc-3c12`, for which the outcome is “active; positive”.
On to `O=[N+]([O-])c1ccc(Nc2ccc(Nc3ccccc3)c(S(=O)(=O)O)c2)c([N+](=O)[O-])c1`, for which the outcome is “active; positive”.
Then `CC1(C)S[C@@H]2[C@H](NC(=O)COc3ccccc3)C(=O)N2[C@H]1C(=O)O`, with “inactive; negative”.
Take `O=CC(=O)c1ccccc1`: the outcome is “active; positive”.
Under `Cc1ccc2nc(-c3ccc(N)cc3)sc2c1S(=O)(=O)O` stands “active; positive”.
Then `S=C1NCCN1`, with “active; weakly positive”; and `N#CSCSc1nc2ccccc2s1`, with “active; positive”.
Then `C1COCCN1`, with “inactive; negative”.
Turning to `c1ccc(O[Si](Oc2ccccc2)(Oc2ccccc2)Oc2ccccc2)cc1`, the outcome was “inactive; negative”.
Under `N[C@@H](Cc1ccc(N(CCCl)CCCl)cc1)C(=O)O` stands “active; positive”; under `OCC(CO)(CBr)CBr`, “active; positive”.
As to `CC1CC(OC(=O)c2ccccc2O)CC(C)(C)C1` (centres undefined), the outcome was “inactive; negative”.
For `Cc1ccncc1`, the outcome is “inactive; negative”.
Then `CCOc1ccc(N)cc1`, with “active; positive”; and `Nc1ccc(Cc2ccc(N)cc2)cc1`, with “active; positive”.
For the compound `S=C=Nc1cccc2ccccc12`, the outcome is “active; positive”.
Then `O=C(O)CC(O)(CC(=O)OO)C(=O)O` (centres undefined), with “inactive; negative”; and `O=C(O)CCCCC1CCSS1` (centres undefined), with “inactive; negative”; and `CCNc1cccc(O)c1`, with “active; positive”.
As for `O=C(Nc1ccccc1)c1cc2ccccc2c(N=Nc2cc(Cl)ccc2Cl)c1O`, the outcome was “active; weakly positive”.
Consider `CSC(C)(C)C=NO`, for which the outcome is “inactive; negative”.
Consider `CCCCN(CCO)CCCC`, for which the outcome was “inactive; negative”.
As for `CC(=O)OC1CC(C)OC(C)O1` (centres undefined), the outcome was “active; positive”.
Under `CCOC(C=C(C)CCC=C(C)C)OCC` stands “active; positive”; under `N#CC(Cl)Cl`, “active; positive”.
Then `CCCCOC(=O)COc1cc(Cl)c(Cl)cc1Cl`, with “inactive; negative”; and `C#C[C@]1(O)CC[C@H]2[C@@H]3CCc4cc(O)ccc4[C@H]3CC[C@@]21C`, with “inactive; negative”.
Under `O=Nc1ccc(Nc2ccccc2)cc1` stands “active; weakly positive”; under `O=P(OCCCl)(OCCCl)OCCCl`, “inactive; negative”.
Consider `BrCC(Br)C1CCC(Br)C(Br)C1` (centres undefined), for which the outcome is “inactive; negative”.
Regarding `CCOC(=O)OCC`, the outcome is “inactive; negative”.
`C[C@H](Cn1cnc2c(N)ncnc21)OCP(=O)(O)O`: the outcome was “active; positive”.
Under `CC(C)(C#N)C(C)(C)C#N` stands “inactive; negative”; under `CN`, “inactive; negative”.
Under `Clc1ccc2c(c1)Oc1ccc(Cl)cc1O2` stands “inactive; negative”; under `Cc1ccc(N)cc1[N+](=O)[O-]`, “active; positive”.
Under `O=C1c2c(O)ccc(O)c2C(=O)c2c(NCCO)ccc(NCCO)c21` stands “active; positive”.

The values above are taken from PubChem BioAssay AID2202554 (NIEHS Division of Translational Toxicology (DTT)).
